Consider one substance from patent US9067881B2, “4-tolyl-ethynyl-octahydro-indole-1-ester derivatives” (NOVARTIS AG, priority 2011, dated 2015).

For data set [1] the following is noted: microsomes.
The conditions of data set [2]: microsomes. The source holds these as a separate data set.

Consider “(3aR,4S,7aR)-4-((S,R)-2-Amino-3-methyl-butyryloxy)-4-m-tolylethynyl-octahydro-indole-1-carboxylic acid methyl ester [Example 4]”, for which, in data set [1], the “CL (rat)” value worked out at 478 µL/min/mg. For the same substance, the “CL (human)” value in data set [2] came out at 630 µL/min/mg.
